Measurements: ChEMBL document CHEMBL1201862, “PubChem BioAssay data set” (2004)
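All cell lines were grown in 96-well plates and treated with compound for 48 hours. Abbreviation: GI50, concentration required for 50% inhibition of growth.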 Active and inactive are the calls of the source. Cut-off read from the data, not from the text of the source: active = GI50 up to about 1.1 µM and inactive = higher.

Legend:
Assay in all cases: growth of human tumour cells (NCI), 48 h
[1] = system: K562
[2] = system: OVCAR-5
[3] = system: U-251
[4] = system: T47D
[5] = system: HL-60
[6] = system: CCRF-CEM
[7] = system: HCT-15
[8] = system: LOX IMVI
[9] = system: NCI-H460
[10] = system: UO-31
[11] = system: TK-10
[12] = system: CAKI-1
[13] = system: SF-295
[14] = system: NCI-H226
[15] = system: MDA-MB-231
[16] = system: EKVX
[17] = system: UACC-62
[18] = system: NCI-H23
[19] = system: SK-MEL-28
[20] = system: IGROV-1
[21] = system: SNB-75
[22] = system: PC-3
[23] = system: SK-OV-3
[24] = system: OVCAR-3
[25] = system: UACC-257
[26] = system: SNB-19
[27] = system: HOP-62
[28] = system: SK-MEL-5
[29] = system: MDA-MB-435
[30] = system: M14
[31] = system: SF-268
[32] = system: 786-0
[33] = system: BT-549
[34] = system: HT-29
[35] = system: SW-620
[36] = system: A498
[37] = system: SK-MEL-2
[38] = system: Malme-3M
[39] = system: NCI/ADR-RES
[40] = system: COLO 205
[41] = system: HCC 2998
[42] = system: OVCAR-4
[43] = system: MCF7
[44] = system: Hs-578T
[45] = system: ACHN
[46] = system: KM12
[47] = system: DU-145
[48] = system: NCI-H522
[49] = system: HOP-92
[50] = system: HCT-116
[51] = system: MOLT-4
[52] = system: RXF 393
[53] = system: OVCAR-8
[54] = system: SN12C
[55] = system: MDA-N
[56] = system: A549
[57] = system: SF-539
[58] = system: RPMI-8226

O=[N+]([O-])c1ccc2c(c1)nc(Cc1ccccc1)n2C[C@@H]1CCCN2CCCCC12 (stereo partly specified)
GI50 [1]: 18.7 µM (inactive)
GI50 [2]: 28.5 µM (inactive)
GI50 [3]: 44.7 µM (inactive)
GI50 [4]: 39.4 µM (inactive)
GI50 [5]: < 0.01 µM (active)
GI50 [6]: 17.6 µM (inactive)
GI50 [7]: 36.9 µM
GI50 [8]: 20.4 µM (inactive)
GI50 [9]: 41.4 µM (inactive)
GI50 [10]: 6.49 µM (inactive)
GI50 [11]: 37.5 µM (inactive)
GI50 [12]: 28.3 µM (inactive)
GI50 [13]: 18 µM (inactive)
GI50 [14]: 89.9 µM (inactive)
GI50 [15]: 31.3 µM (inactive)
GI50 [16]: 17.1 µM (inactive)
GI50 [17]: 19.5 µM (inactive)
GI50 [18]: 27.5 µM (inactive)
GI50 [19]: 18.6 µM (inactive)
GI50 [20]: 25.8 µM (inactive)
GI50 [21]: 63.5 µM (inactive)
GI50 [22]: 37.3 µM (inactive)
GI50 [23]: 34.4 µM (inactive)
GI50 [24]: 41.5 µM (inactive)
GI50 [25]: 15.8 µM (inactive)
GI50 [26]: 56.4 µM (inactive)
GI50 [27]: > 100 µM (inactive)
GI50 [28]: 16.5 µM (inactive)
GI50 [29]: 17.2 µM (inactive)
GI50 [30]: 18.2 µM (inactive)
GI50 [31]: 45.8 µM (inactive)
GI50 [32]: 22.3 µM (inactive)
GI50 [33]: 26.7 µM (inactive)
GI50 [34]: 17.5 µM (inactive)
GI50 [35]: 40.4 µM (inactive)
GI50 [36]: 13.4 µM (inactive)
GI50 [37]: 20.9 µM (inactive)
GI50 [38]: 14.2 µM (inactive)
GI50 [39]: 22.9 µM (inactive)
GI50 [40]: 17.3 µM (inactive)
GI50 [41]: 12.9 µM (inactive)
GI50 [42]: 27.4 µM (inactive)
GI50 [43]: 41.1 µM (inactive)
GI50 [44]: 38.5 µM (inactive)
GI50 [45]: 57.8 µM (inactive)
GI50 [46]: 21.3 µM (inactive)
GI50 [47]: 60.5 µM (inactive)
GI50 [48]: 21.6 µM (inactive)
GI50 [49]: 3.71 µM (inactive)
GI50 [50]: 33.7 µM (inactive)
GI50 [51]: 17.4 µM (inactive)
GI50 [52]: 19.4 µM (inactive)
GI50 [53]: 34.9 µM (inactive)
GI50 [54]: 48 µM (inactive)
GI50 [55]: 20.6 µM (inactive)
GI50 [56]: 51.2 µM (inactive)

COc1cc2cc3c4cc(OC)c(OC)cc4cc[n+]3c(C)c2cc1OC [CORALYNE]
GI50 [1]: 91.4 µM (inactive)
GI50 [2]: > 100 µM (inactive)
GI50 [3]: 9.59 µM (inactive)
GI50 [4]: > 100 µM (inactive)
GI50 [5]: > 100 µM (inactive)
GI50 [6]: > 100 µM (inactive)
GI50 [7]: 48.2 µM
GI50 [8]: > 100 µM (inactive)
GI50 [9]: 38.9 µM (inactive)
GI50 [10]: > 100 µM (inactive)
GI50 [11]: > 100 µM (inactive)
GI50 [12]: 67.1 µM (inactive)
GI50 [13]: 28.6 µM (inactive)
GI50 [14]: 30.4 µM (inactive)
GI50 [15]: > 100 µM (inactive)
GI50 [16]: 60.7 µM (inactive)
GI50 [17]: 23.4 µM (inactive)
GI50 [18]: > 100 µM (inactive)
GI50 [19]: > 100 µM (inactive)
GI50 [20]: 37.3 µM (inactive)
GI50 [21]: 10.2 µM (inactive)
GI50 [22]: > 100 µM (inactive)
GI50 [23]: > 100 µM (inactive)
GI50 [24]: > 100 µM (inactive)
GI50 [25]: 35.4 µM (inactive)
GI50 [26]: 13.4 µM (inactive)
GI50 [28]: 72.1 µM (inactive)
GI50 [29]: > 100 µM (inactive)
GI50 [31]: 1.96 µM (inactive)
GI50 [32]: 15.6 µM (inactive)
GI50 [33]: 10.8 µM (inactive)
GI50 [34]: 77.4 µM (inactive)
GI50 [35]: 58.7 µM (inactive)
GI50 [36]: 6.05 µM (inactive)
GI50 [37]: > 100 µM (inactive)
GI50 [38]: 60.1 µM (inactive)
GI50 [39]: > 100 µM (inactive)
GI50 [40]: 47.3 µM (inactive)
GI50 [41]: 42.7 µM (inactive)
GI50 [42]: 67.5 µM (inactive)
GI50 [57]: 41.7 µM (inactive)
GI50 [43]: > 100 µM (inactive)
GI50 [44]: 24.9 µM (inactive)
GI50 [45]: > 100 µM (inactive)
GI50 [46]: 88.7 µM (inactive)
GI50 [47]: > 100 µM (inactive)
GI50 [48]: 40 µM (inactive)
GI50 [49]: > 100 µM (inactive)
GI50 [50]: > 100 µM (inactive)
GI50 [51]: > 100 µM (inactive)
GI50 [53]: > 100 µM (inactive)
GI50 [54]: 5.74 µM (inactive)
GI50 [55]: > 100 µM (inactive)
GI50 [56]: > 100 µM (inactive)
GI50 [58]: > 100 µM (inactive)
